Assays:
[1] = target: Recombinant human inducible NOS (iNOS) (Homo sapiens (Human), UniProt P35228); assay: Human iNOS enzyme assay (Protocol 1 or Protocol 2, radiometric); type: biochemical
Experimental: The human iNOS assay was carried by either one of the two protocols as described herein:
Recombinant human inducible NOS (iNOS) was produced in Baculovirus-infected Sf9 cells (ALEXIS). In a radiometric method, NO synthase activity was determined by measuring the conversion of [^3H]L-arginine to [^3H]L-citrulline. To measure iNOS, 10 μL of enzyme was added to 100 μL of 100 mM HEPES, pH=7.4, containing 1 mM CaCl2, 1 mM EDTA, 1 mM dithiothreitol, 1 μM FMN, 1 μM FAD, 10 μM tetrahydrobiopterin, 120 μM NADPH, and 100 nM CaM.
To measure enzyme inhibition, a 15 μL solution of a test substance was added to the enzyme assay solution, followed by a pre-incubation time of 15 min at RT. The reaction was initiated by addition of 20 μL L-arginine containing 0.25 μCi of [^3H] arginine/mL and 24 μM L-arginine. The total volume of the reaction mixture was 150 μL in every well. The reactions were carried out at 37° C. for 45 minutes, The reaction was stopped by adding 20 μL of ice-cold buffer containing 100 mM HEPES, 3 mM EGTA, 3 mM EDTA, pH=5.5. [^3H]L-citrulline was separated by DOWEX (ion-exchange resin DOWEX 50 W×8-400, SIGMA) and the DOWEX was removed by spinning at 12,000 g for 10 min in the centrifuge. An aliquot (70 μL) of the supernatant was added to 100 μL of scintillation fluid, and the samples were counted in a liquid scintillation counter (1450 Microbeta Jet, Wallac). Specific NOS activity was reported as the difference between the activity recovered from the test solution and that observed in a control sample containing 240 mM of the inhibitor L-NMMA. All assays were performed at least in duplicate. Standard deviations are 10% or less.
Primary stock solutions of each test compound were prepared in distilled water on the day of study to obtain a final concentration of 6 mM. For the determination of IC50 values, 11 test compound concentrations were prepared as 3-fold serial dilutions. Test compounds were tested in the iNOS assay at a concentration of 1000 μM to 0.0169 μM. The vehicle of the test compound or inhibitor, distilled water, was used as blank control. For non-specific activity, 100 μM L-NMMA was run in parallel as a control.
All incubations were performed in duplicate
The reaction mixture was prepared on ice by the addition of the following components to the appropriate well of a 1.0 mL 96-well polypropylene plate:
10 μL of test compound, reference inhibitor, or control (vehicle or L-NMMA) solution;
25 μL of Reaction Buffer (50 mM Tris-HCl, 6 μM BH4, 2 μM FMN, 2 μM FAD);
5 μL of 10 mM NADPH solution;
5 μL of 1 μM Calmodulin; and
The reaction mixture was pre-incubated at room temperature for 15 minutes. Following this pre-incubation, the reaction was initiated by the addition of 5 μL of the substrate L-arginine (1 μCi of [^3H]-L-Arginine+30 μM of unlabeled L-Arginine) to the reaction mixture. The total reaction volume was 60 μL. The assay plate containing the reaction mixtures was sealed and incubated at 37° C. for 30 minutes. At the end of this incubation period, 400 μL of ice-cold Stop Buffer (the EDTA in the Stop Buffer chelates all of the available calcium) was added to each well to stop the reaction. 100 μL of equilibrated resin pH 5.5 was added to each of the assay wells. The reaction samples were vortexed and transferred to spin cups, after-which they were centrifuged at 13,000 rpm for 30 sec. The spin cups were removed from the holder and […] (containing the unbound L-citrulline) were added to the appropriate wells of a 96-well liquid scintillation plate. 175 μL of scintillation fluid were also added to each well. The plate was sealed, and radioactivity was quantitated using a Microbeta liquid scintillation counter.
Data were analyzed using a Sigmoidal dose-response (variable slope) curve to determine the IC50 value of the test compound. Y=Bottom+(Top−Bottom)/(1+10^((Log IC50−X)*Hill Slope))

[2] = tested on: Carrageenan model of inflammatory pain; assay: Carrageenan model of inflammatory pain; type: in vivo, rat; details: rats
Experimental: Inflammation was induced by injecting 0.1 mL of a 3% carrageenan suspension s.c. into the supplanter aspect of a hindpaw of lightly anesthetized rats. Typically, pronounced inflammation and edema were obvious within three hours of the injection. The carrageenan model is a model of inflammatory pain with two components: the first occurring immediately after injection provides information on the acute nociceptive response to a painful stimulus (in this case, the chemical carrageenan). There is also a second, neurogenic component that develops several hours later and reflects the type of neuronal activity due to the hyperalgesic and allodynic components as found in neuropathic pain. Considerable evidence has shown that NO and its enzymes are involved in the central mechanisms of inflammatory hyperalgesia at the spinal cord level and that peripheral inflammation can upregulate nNOS expression and induce iNOS expression in the spinal cord (Guhring et al., J. Neurosci. 20:6714-6720, 2000; Wu et al., Exp. Brain Res. 118:457-465, 1998; and Wu et al., Pain 94:47-58, 2001).

CNCCN1CCSc2cc(NC(=N)c3cccs3)ccc21 [Compound 8, N-(4-(2-(methylamino)ethyl)-3,4-dihydro-2H-benzo[b][1,4]thiazin-7-yl)thiophene-2-carboximidamide]
IC50 [1]: 70.6 µM | reversal of mechanical allodynia ([2]; ipsilateral paw, 60, 100, or 200 mg/kg p.o. (FIG. 6)): reversal of mechanical allodynia | reversal of thermal hyperalgesia (late phase), paw withdrawal latency ([2]; ipsilateral paw, text: i.p. dosing, FIG. 7 legend: 60, 100, or 200 mg/kg p.o.): reversal of thermal hyperalgesia
